Test results reported in a melting point compilation (Tetko et al.; mined from patent text by program, amines drawn as free bases though some values may be those of a salt).

Compound | melting point
COc1ccc2c(c1)CCc1ccc(-c3ccccc3)cc1C21N=C(N)N(C)C1=O (centres undefined) | 167 to 171 °C
O=C(Nc1ccc2cc(CN3CCC(CCO)CC3)cnc2c1)c1ccc(-c2ccc(Cl)cc2)cc1 | 204 °C
N#Cc1ccc(N2C=CC(N)=C([N+](=O)[O-])C2)cc1 | 210 to 211 °C
O=C(O)C1CCN(c2ncc(NS(=O)(=O)C(F)(F)F)c(NCc3ccccc3)n2)CC1 | 160 °C
CCOc1c2c(nc3c1cnn3CC)C(=O)c1ccccc1CC2 | 150 to 152 °C
CCCn1cc2c(n1)-c1c(nc3ccccc3c1N)CC2 | 225 to 226 °C
CCN(CC)CCn1nc2c3c(c(NC(=O)CN(CCOCc4ccccc4)Cc4ccccc4)ccc31)Oc1ccc(O)cc1-2 | 165 to 168 °C
CC(CCCc1ccccc1)n1nnc2c(=O)[nH]c(Cc3ccccc3)nc21 (centres undefined) | 112 °C
O=C(NC[C@H]1CN(c2ccc3c(c2)CCCc2cn[nH]c2-3)C(=O)O1)c1ccccc1 | 105 to 125 °C
CC(C)(C)C(=O)c1c[nH]nc1N | 159 to 160 °C
CN1C2CCC1CN(c1ccc(-c3ccccc3)nn1)C2 | 151 °C
CC(C)(Cc1ccccc1)C(NC(=O)c1ccc(Cl)cc1)Nc1c(Nc2cccnc2Cl)c(=O)c1=O (centres undefined) | 236 to 237 °C
CCN(CC)C(C(C(=O)C(C)(C)C)n1cncn1)C(Cl)(Cl)Cl (centres undefined) | 103 to 110 °C
O=C1C[C@H](C(=O)Nc2ccc(N3CCOCC3=O)cc2)N(C(=O)Nc2ccc(Cl)cc2)C1 | 154 °C
CC(CCCc1ccc(F)cc1)c1cc(NS(C)(=O)=O)c2c(c1)OC(C)(C)c1ccncc1-2 (centres undefined) | 208 to 209 °C
CCCCC1C2CCCC(C2=O)C2(O)CCCCC12 (centres undefined) | 140 to 141 °C
CCCCC(CC)CNc1cccc(-c2ccnc3c(C(=O)c4cccs4)cnn23)c1 (centres undefined) | 134 to 138 °C
Cc1ccc2cccc(OCc3c(Cl)ccc(N(C)C(=O)CNC(=O)CN4CCN(c5ccc([N+](=O)[O-])cc5)CC4)c3Cl)c2n1 | 178 to 181 °C
CS(=O)(=O)c1ccc(-c2cnn(CC(=O)c3ccc(F)cc3F)c(=O)c2-c2ccc(F)cc2)cc1 | 191 to 192 °C
CCCCCCCCCCCCCCCCCCOc1cc(OCCCOc2ccccc2)cc(N(CC(=O)O)CC(=O)O)c1 | 99 to 102 °C
CCOCCCc1ccc(Oc2ccc3c(c2)C=C(C(=O)Nc2ccc(CN(C)C4CCOCC4)cc2)CCS3(=O)=O)cc1 | 156 to 157 °C
CC(NC(Nc1ccc(Cl)cc1)=C(C#N)S(C)(=O)=O)C(C)(C)C (centres undefined) | 160 to 162 °C
CC(C)(C)OC(=O)NCCCCCC(=O)Nc1cccnc1 | 96 to 98 °C
C#CCN1C(=O)COc2cc(F)c(-c3ncnc(C(F)(F)F)c3Cl)cc21 | 158 to 159 °C

Compound | melting point
O=C(NCN1CCN(c2ccccn2)CC1)c1ccccc1 | 125 to 127 °C
O=C(NCCO)C(=O)c1ccc(OCCOc2ccc3ccccc3c2)cc1 | 138 to 140 °C
S=c1[nH]c(-c2ccccc2)c(-c2ccccc2)n1Nc1cccc(Cl)c1 | 178 to 180 °C
Nc1ncc(-c2noc(-c3cnn4c(C(F)(F)F)cc(-c5ccc(C(F)(F)F)c(F)c5)nc34)n2)cn1 | 270 °C
O=C(Nc1ccc(Oc2ccnc(NCCN3CCOCC3)n2)c2ccccc12)c1cc(F)cc(N2CCOCC2)c1 | 112 to 114 °C
O=c1oc2ccccc2c(=O)n1CCCCCCCCCO | 125 to 128 °C
Cc1c(C#N)c2c(c(C)c1NC(=O)CC(C)(C)C)C(c1ccc(C(C)C)cc1)CO2 (centres undefined) | 135 to 136 °C
Cc1ncncc1NC(=O)c1ccc(-n2nc(C(F)(F)F)cc2C2CC2)c(F)c1 | 150 to 152 °C
C=C(ON1C(=O)[C@@H](NC(=O)OC(C)(C)C)[C@@H]1C)C(=O)O | 127 to 130 °C
CCC(CC)(CC(=O)Nc1cccc(SCc2ccc3cccc(F)c3n2)c1)C(=O)O | 80 to 83 °C
CN1CCN(c2ccc(C(=O)NCCCCCCCCCCCO[N+](=O)[O-])cn2)CC1 | 95 to 96 °C
CC(=O)Nc1ccccc1CS(=O)c1nccn1Cc1ccccn1 (centres undefined) | 146 to 148 °C
C[C@@H](NC(=O)c1csc(-c2cccnc2)n1)[C@](O)(Cn1cncn1)c1ccc(F)cc1F | 182 to 183 °C
CN1C(=O)c2[nH]c3ccccc3c2Oc2ccccc21 | 247 to 248 °C
N#CCC(=O)c1nn(-c2ccccc2)c2c1Cc1ccccc1-2 | 189 to 190 °C
O=C(C1CC1)N1CCC2(CC1)OC(c1ccccc1)C1CCCCN12 (centres undefined) | 110 to 114 °C
Cc1cc(-c2cccc(C(F)(F)F)c2)nn2c(C)nnc12 | 196 to 198 °C
COc1ccc(C=C(C#N)C#N)c2c1OC(C)(C)C2 | 198 to 200 °C
CC(C(=O)NCCCC(F)(F)F)(c1ccccc1)c1ccccc1 | 82 °C
CC(C)NC(=O)c1c(NC(=O)c2cc(C(F)(F)F)nn2-c2ncccc2Cl)c(Br)cc2cn[nH]c12 | 189 to 190 °C
Cc1nsc(N=Nc2ccc(N(CCO)CCO)cc2NC(=O)C(C)C)c1C#N | 152 to 154 °C
O=Cc1ccc(N2CCN(c3ccncc3)CC2)cc1 | 116 to 118 °C
CCCCCCCCCCCCCCCCc1c(O)c(CN(C)C(=O)Oc2cccc([N+](=O)[O-])c2)c(CCC)c(O)c1CN(C)C(=O)Oc1cccc([N+](=O)[O-])c1 | 89 to 95 °C

Other lines, results leading:

melting point | Compound
166 to 168 °C | CCCNC(=O)NCc1ccc2c(c1)C(=O)N(C1CCC(=O)NC1=O)C2=O (centres undefined)
266 to 268 °C | Nc1c(OCC(F)(F)F)cc(O)c2c1C(=O)c1ccccc1C2=O
145 °C | CCN(CC)c1ccc(C(O)C#Cc2ccc(C(=O)O)cc2)cc1C(C)C (centres undefined)
97 to 100 °C | C[C@H]1[C@H](NSc2ccccc2[N+](=O)[O-])C(=O)N1OCc1ccccc1
63 to 67 °C | O=C1c2cc(Br)ccc2CCC1Cc1cccnc1 (centres undefined)
198 °C | O=C(Nc1ccc(NC(=O)OCCCl)nc1)OCCCl
115 to 116 °C | CC(c1cc2ccccc2s1)N(O)C=O (centres undefined)
147 to 148 °C | COC(=O)C(=O)c1ccc(OCCOc2cc3ccccc3c3ccccc23)cc1
189 °C | CN(C)S(=O)(=O)c1ccc(C(=O)O)c(C(F)(F)F)c1
78 to 80 °C | COC(=O)[C@@H]1CN(C#N)C[C@H]1c1ccc(OC)c(OC2CCCC2)c1 (relative stereo)
270 °C | CCC(=O)Nc1cccc2c1CCC(NC(=O)CC)C2 (centres undefined)
232 to 236 °C | CC(C)C(NC(=O)Cc1ccc(-c2ccccc2)cc1)C(=O)Nc1n[nH]c(=S)s1 (centres undefined)
228 °C | c1ccc(COc2ccc(-c3nnn[nH]3)cc2)cc1
167 °C | COc1ccc(S(N)(=O)=O)cc1C(=O)NCC1CCCN1CC1=CCCCC1 (centres undefined)
114 °C | C#Cc1ccccc1-c1ccc(I)cc1
150 to 151 °C | COc1ccc(C(=O)C2=C(C)C(=O)C3C=CC=CC3C2=O)cc1 (centres undefined)
> 250 °C | O=C1CN(c2ccc(OC(F)(F)C(F)F)cc2)C(=O)CN1
147 to 148 °C | Cc1ccc(CSc2nc3cc4c(cc3[nH]2)OC(C)O4)nc1
166 to 167 °C | COc1cc(C=O)ccc1OCc1nc(-c2cccc(C#N)c2)oc1C
165 to 167 °C | C=CCn1cc(Cn2ccnc2)c2cc(O)ccc21
270 to 272 °C | NC(=O)c1cccc2nnsc12
104 to 105 °C | O=C(NCCc1c[nH]c2ccc(F)cc12)OCc1ccccc1
130 °C | CCCC(=O)C1=C(O)CC(c2c(C)c(C)c(C)c3ccoc23)CC1=O (centres undefined)
130 to 132 °C | COC(=O)c1ccc(Nc2cccc3ccccc23)cc1
193 to 194 °C | COC(C)C(=O)Nc1ccc(C2=NNC(=O)CC2C)cc1 (centres undefined)
138 °C | CC(=O)N1CC(=O)c2ccccc21

melting point | Compound
181 to 183 °C | COc1cn(-c2ccc(OCc3ccccc3)cc2F)nc(-c2ccnn2-c2ccccc2)c1=O
122 to 124 °C | CCCc1c(SCCCOc2ccc3c(=O)cc(CCC(=O)O)oc3c2CCC)ccc(C(C)=O)c1O
305 to 310 °C | COc1ccc2c(c1)C(=O)N(c1ccc3[nH]c(=O)ccc3c1)C2
102 to 105 °C | COc1ccc2c(c1CCc1ccccc1)CCCC2=O
280 °C | COc1cc2[nH]c(=O)cc(C(F)(F)F)c2cc1NC(C)=O
110 to 113 °C | OC1Cc2cc(F)ccc2Sc2ccccc21 (centres undefined)
105 to 106 °C | CCC12CCC3c4ccc(OC)cc4CCC3C1CC=C2OC(C)=O (centres undefined)
79.1 to 81 °C | COc1ccc(/C=C(/C#N)c2c(F)cccc2F)cc1OC1CCCC1
284 to 285 °C | O=c1c(-c2nnn[nH]2)coc2ccccc12
140 to 142 °C | Brc1cccc(C#Cc2ccncc2)c1
127 °C | CCC(=O)Oc1cc(OC)cc(OC)c1C(=O)C=Cc1cccs1
202 to 204 °C | N=c1nc(N)c2ncn(Cc3ccccc3)c2c(N)n1
92 to 94 °C | COc1ccc2c(c1)c(CCON)c(C)n2Cc1ccc(Cl)cc1
283 to 286 °C | CNC1(C)CN(c2nc3c(cc2F)c(=O)c(C(=O)O)cn3C2CC2)C1
130 to 131 °C | COc1ccc(S(=O)(=O)NCC2CCN(C[C@H]3COc4ccc(Cl)cc4O3)CC2)cc1
130 to 131 °C | COc1cc(OC)nc(N2CCN(Cc3ccc(CNC(C)=O)cc3)CC2)n1
79 to 82 °C | COc1ccc2c(C(C)C(=O)OCCNC(=O)c3cccnc3)cccc2c1 (single isomer, unassigned; (+))
97 to 99 °C | COC(=O)C1C=CCN2C(=O)C(C)(CCO)C(=O)N12 (centres undefined)
122 to 124 °C | COc1ccc(Br)c(O)c1O
266 °C | COc1cc(C2=C(c3c(C)[nH]c4ccccc34)C(=O)NC2=O)cc(OC)c1OC
74 to 75 °C | CC(C)(C)c1ccc(C(N)=CC#N)cc1
125 to 126 °C | Cc1oc(-c2ccco2)nc1COc1ccc(CCl)cc1Br
114 to 116 °C | O=C(CCl)Nc1cccc2[nH]ccc12
173 to 174 °C | COc1ccc(CC(=O)Nc2ccc3sc(C)nc3c2Cl)cc1
51 to 53 °C | CCCc1c(O)ccc2c1OC(C(=O)OC)CC2 (centres undefined)
> 250 °C | COc1cc2c3c(c1OC)CCc1ccccc1C3CNC2 (centres undefined)
